In patent US20120220580A1, “PREPARATION OF CAROTENOID DERIVATIVES AND THEIR APPLICATIONS” (BEIJING GINGKO GROUP BIOLOGICAL TECHNOLOGY CO., LTD., priority 2009, published 2012):
Where a name gives a salt, the structure may show the parent alone.

Assays:
nutritional obesity rats [1] = assay: Body weight of nutritional obesity rats on high-fat feed, intragastric drug for 30 d (Example 17); format: in vivo, rat; conditions: x ± s; for Body weight(g) (After-experiment) / Body weight(g) increased: Table 1, high-fat feed; for Body weight(g) (After-experiment): after 30 d intragastric administration; for Body weight(g) increased: increase over 30 d of administration; as to Body weight(g) (After-experiment): test concentration or dose not given here; as to Body weight(g) increased: test concentration or dose not given here
Experimental: (§1) Fucoxanthin group and test animal groups were administrated with same doses of the drugs. The basal feed control group continued to be fed with basal feed, other groups with high-fat feed. The basal feed- and model control groups were intragastric administrated with distilled water, the other, drug-administrated groups with respective doses of drug, the administration were carried out uninterruptedly for 30 d. Each group of the animals were bred in different hutches, the room temperature was controlled within (22±2)° C., using natural illumination, the animals took food and drank freely. The body weights of the animals were measured one time each week, feed-intakes of the rats were also observed and recorded. After 30 days the rats were weighed. Statistical analysis: Variance analysis of the data collected in this experiment was implemented by SAS software package, Dunnett's t-test was used for inter-group comparative analysis, p<0.05 was used as the criterion of statistical significance.

nutritional obesity rats [2] = assay: Weight of fat pads around testicles of nutritional obesity rats (Example 18); format: in vivo, rat; conditions: after 30 d administration, x ± s; for Body weight(g) (After-experiment): Table 2
Experimental: as §1, with “significance. Experimental procedures were the same as in Example 17. […] Statistical analysis was the same as in Example 16.” for “significance.”

nutritional obesity rats [3] = assay: Weight of abdomen fat of nutritional obesity rats (Example 20); format: in vivo, rat; conditions: after 30 d administration, x ± s; for Body weight(g) (After-experiment): Table 4
Experimental: as §1, with “significance. Experimental procedures were the same as in Example 17. […] Statistical analysis was the same as in Example 16.” for “significance.”

[4] = tested on: nutritional obesity model rats; assay: Weight of fat pads around kidneys of nutritional obesity model rats (Example 19); format: in vivo, rat; conditions: after 30 d administration, x ± s; for Body weight(g) (After-experiment): Table 3
Experimental: as §1, with “significance. Experimental procedures were the same as in Example 17. […] Statistical analysis was the same as in Example 16.” for “significance.”

[5] = compared with fucoxanthin; cited from earlier work
lab mice = conditions: fucoxanthin as an additive in condensed food, experimental animals; cited from earlier work; also: test concentration or dose not given here

| Molecule | Body weight(g) (After-experiment) (nutritional obesity rats [1]) | Body weight(g) increased (nutritional obesity rats [1]) | Body weight(g) (After-experiment) (nutritional obesity rats [2]) | Weight fat pads around testicles(g) (nutritional obesity rats [2]) | Weight fat pads around testicles/bw × 100 (nutritional obesity rats [2]) | Body weight(g) (After-experiment) (nutritional obesity rats [3]) | Weight abdomen fat/bw × 100 (nutritional obesity rats [3]) | Weight. abdomenfat (g) (nutritional obesity rats [3]) | Body weight(g) (After-experiment) [4] | Weight fat pads around kidneys(g) [4] | Weight fat pads around kidneys/bw × 100 [4] | further results |
| --- | --- | --- | --- | --- | --- | --- | --- | --- | --- | --- | --- | --- |
| CC(=O)OC1CC(C)(C)C(=C=C/C=C/C=C/C(C)=C/C=C/C=C(C)/C=C/C=C(\C)C(=O)CC23OC2(C)CC(OC(=O)CCC(=O)OC[C@H](O)[C@H]2OC(=O)C(O)=C2O)CC3(C)C)[C@@](C)(O)C1 (stereo partly drawn) [compound 4, fucoxanthin succinate-4-vitamin C ester] | 514.00 ± 30.22ΔΔ g | 27.41 ± 1.21ΔΔ g | 514.00 ± 30.22 | 4.00 ± 0.14ΔΔ g | 0.70 ± 0.21ΔΔ | 514.00 ± 30.22 | 0.80 ± 0.11ΔΔ | 4.11 ± 0.14ΔΔ g | – | – | – | – |
| CCCCC/C=C\C/C=C\CCCCCCCC(=O)OC1CC(C)(C)C2(CC(=O)/C(C)=C/C=C/C(C)=C/C=C/C=C(C)/C=C/C=C(\C)C=C=C3C(C)(C)CC(OC(C)=O)C[C@@]3(C)O)OC2(C)C1 (stereo partly drawn) [compound 15, fucoxanthin linoleate] | – | – | 520.01 ± 16.88 | 6.34 ± 0.55ΔΔ g | 1.22 ± 0.11ΔΔ | – | – | – | – | – | – | – |
| CC(=O)OC1CC(C)(C)C(=C=C/C(C)=C/C=C/C(C)=C/C=C/C=C(C)/C=C/C=C(\C)C(=O)CC23OC2(C)CC(OC(=O)CCC(=O)O)CC3(C)C)[C@@](C)(O)C1 (stereo partly drawn) [compound 3, fucoxanthin succinate sodium salt] | – | – | – | – | – | – | – | – | – | – | – | Body weight(g) (After-experiment) (nutritional obesity rats [2]; succinate sodium salt): 513.1 ± 19.13 g; Weight fat pads around testicles(g) (nutritional obesity rats [2]; succinate sodium salt): 7.00 ± 0.13ΔΔ g; Weight fat pads around testicles/bw × 100 (nutritional obesity rats [2]; succinate sodium salt): 1.20 ± 0.10ΔΔ |
| CC(=O)OC1CC(C)(C)C(=C=C/C(C)=C/C=C/C(C)=C/C=C/C=C(C)/C=C/C=C(\C)C(=O)CC23OC2(C)CC(OC(=O)CCC(=O)O)CC3(C)C)[C@@](C)(O)C1 (stereo partly drawn) [compound 2, fucoxanthin succinate] | – | – | 512.1 ± 21.00 | 6.00 ± 0.11ΔΔ g | 1.18 ± 0.13ΔΔ | 516.03 ± 12.15 | 1.31 ± 0.12ΔΔ | 6.76 ± 0.22ΔΔ g | – | – | – | – |
| CC(=O)OC1CC(C)(C)C(=C=C/C(C)=C/C=C/C(C)=C/C=C/C=C(C)/C=C/C=C(\C)C(=O)CC23OC2(C)CC(OC(=O)CCC(=O)Oc2ccc(/C=C/c4cc(O)cc(O)c4)cc2)CC3(C)C)[C@@](C)(O)C1 (stereo partly drawn) [compound 14, fucoxanthin resveratrol succinate] | 514.00 ± 22.22ΔΔ g | 28.52 ± 1.21ΔΔ g | 514.00 ± 22.22 | 5.00 ± 0.12ΔΔ g | 0.90 ± 0.12ΔΔ | – | – | – | – | – | – | – |
| C\C(C=C=C1C(C)(C)CC(O)C[C@@]1(C)O)=C/C=C/C(C)=C/C=C/C=C(C)/C=C/C=C(\C)C(=O)CC12OC1(C)CC(O)CC2(C)C (stereo partly drawn) [fucoxanthol, reference compound] | 527.00 ± 18.89ΔΔ g | 39.39 ± 18.11ΔΔ g | 527.00 ± 18.89 | 7.00 ± 0.67ΔΔ g | 1.25 ± 0.13ΔΔ | 527.00 ± 18.89 | 1.60 ± 0.11ΔΔ | 7.91 ± 0.11ΔΔ g | 527.00 ± 18.89 | 7.0 ± 0.58ΔΔ g | 1.20 ± 0.10ΔΔ | weight-reducing activity [5]: much stronger than fucoxanthin |
| CC(=O)OC1CC(C)(C)C(=C=C/C(C)=C/C=C/C(C)=C/C=C/C=C(C)/C=C/C=C(\C)C(=O)CC23OC2(C)CC(OC(=O)[C@@H](O)[C@H](O)C(=O)O)CC3(C)C)[C@](C)(O)C1 (stereo partly drawn) [compound 11, fucoxanthin tartrate] | 515.00 ± 18.90ΔΔ g | 29.25 ± 1.23ΔΔ g | – | – | – | 515.00 ± 18.90 | 1.40 ± 0.13ΔΔ | 7.21 ± 0.23ΔΔ g | – | – | – | – |
| fucoxanthin citrate sodium salt [compound 6] | 507.00 ± 20.11ΔΔ g | 20.32 ± 1.21ΔΔ g | – | – | – | – | – | – | – | – | – | Body weight(g) (before-experiment) (nutritional obesity rats [1]; SD male rats, after 1 month high-fat feed, before drug administration (baseline), 10 rats per group): 485.89 ± 18.99 g |
| CC(=O)OC1CC(C)(C)C(=C=C/C(C)=C/C=C/C(C)=C/C=C/C=C(C)/C=C/C=C(\C)C(=O)CC23OC2(C)CC(OC(=O)/C=C(/CC(=O)O)C(=O)O)CC3(C)C)[C@](C)(O)C1 (stereo partly drawn) [compound 8, fucoxanthin aconitate] | – | – | – | – | – | – | – | – | 518.18 ± 15.21 | 4.40 ± 0.34ΔΔ g | 0.85 ± 0.12ΔΔ | – |
| fucoxanthin succinate 4-vitamin Cester sodium salt [compound 5] | – | – | – | – | – | 504.01 ± 18.23 | 0.71 ± 0.10ΔΔ | 3.58 ± 0.21ΔΔ g | 513.15 ± 11.00 | 7.00 ± 0.32ΔΔ g | 1.12 ± 0.10ΔΔ | – |
| CC(=O)OC1CC(C)(C)C(=C=C/C(C)=C/C=C/C(C)=C/C=C/C=C(C)/C=C/C=C(\C)C(=O)CC23OC2(C)CC(OC(=O)CC(O)(CC(=O)OC[C@H](O)[C@H]2OC(=O)C(O)=C2O)C(=O)O)CC3(C)C)[C@](C)(O)C1 (stereo partly drawn) [compound 7, fucoxanthincitrate5-vitamin C ester] | 506.00 ± 19.07ΔΔ g | 18.21 ± 1.12ΔΔ g | – | – | – | – | – | – | – | – | – | – |
| CC(=O)OC1CC(C)(C)C(=C=C/C(C)=C/C=C/C(C)=C/C=C/C=C(C)/C=C/C=C(\C)C(=O)CC23OC2(C)CC(OC(=O)CCCN(C)C)CC3(C)C)[C@](C)(O)C1 (stereo partly drawn) [compound 9, fucoxanthin di-methylaminobutyrate] | – | – | – | – | – | – | – | – | 514.13 ± 13.00 | 5.00 ± 0.23ΔΔ g | 0.98 ± 0.11ΔΔ | – |
| CC(=O)OC1CC(C)(C)C(=C=C/C(C)=C/C=C/C(C)=C/C=C/C=C(C)/C=C/C=C(\C)C(=O)CC23OC2(C)CC(OC(=O)CC(O)(CC(=O)O)C(=O)O)CC3(C)C)[C@](C)(O)C1 (stereo partly drawn) [compound 1, fucoxanthin citrate] | 515.00 ± 29.21ΔΔ g | 28.50 ± 1.15ΔΔ g | – | – | – | – | – | – | – | – | – | – |
| CC(=O)OC1CC(C)(C)C(=C=C/C(C)=C/C=C/C(C)=C/C=C/C=C(C)/C=C/C=C(\C)C(=O)CC23OC2(C)CC(O)CC3(C)C)[C@](C)(O)C1 (stereo partly drawn) [fucoxanthin, 3′-(Acetyloxy)-6′,7′-didehydro-5,6-epoxy-5,5′,6,6′,7,8-hexahydro-3,5′-dihydroxy-8-oxo-β,β-carotene, reference compound] | 531.00 ± 20.32Δ g | 43.68 ± 19.13Δ g | 531.00 ± 20.32 | 7.32 ± 0.83Δ g | 1.38 ± 0.11Δ | 531.00 ± 20.32 | 1.81 ± 0.13Δ | 9.61 ± 0.12ΔΔ g | 531.00 ± 20.32 | 7.42 ± 0.60Δ g | 1.42 ± 0.12Δ | addiction or other side effects (lab mice): would not induce the addiction of the experimental animals, or had any other side effects |
| CC(=O)OC1CC(C)(C)C(=C=C/C(C)=C/C=C/C(C)=C/C=C/C=C(C)/C=C/C=C(\C)C(=O)CC23OC2(C)CC(OC(=O)CNC(=O)C(CS)NC(=O)CCC(N)C(=O)O)CC3(C)C)[C@](C)(O)C1 (stereo partly drawn) [compound 10, fucoxanthin glutathione ester] | – | – | – | – | – | 517.00 ± 11.23 | 1.50 ± 0.14ΔΔ | 7.75 ± 0.20ΔΔ g | 522.08 ± 18.11 | 4.00 ± 0.40ΔΔ g | 0.75 ± 0.11ΔΔ | – |
| C\C(C=C=C1C(C)(C)CC(OC(=O)N2CCOCC2)C[C@@]1(C)O)=C/C=C/C(C)=C/C=C/C=C(C)/C=C/C=C(\C)C(=O)CC12OC1(C)CC(OC(=O)N1CCOCC1)CC2(C)C (stereo partly drawn) [compound 12, fucoxanthol bi-morpholino carbamate] | 500.01 ± 20.10ΔΔ g | 12.12 ± 1.25ΔΔ g | – | – | – | – | – | – | – | – | – | – |
